In patent US12714671B2, “Cell membrane lipid-extracted nanoparticles (CLENs) for selective targeting, image analysis and cancer therapy” (priority 2018, dated 2026):
Where a name gives a salt, the structure may show the parent alone.

System: 4T1 cells
Experiment: Cytotoxicity of doxorubicin-loaded CLENs (SRB assay)
Type: cell-based, murine
Settings: 24 h, free doxorubicin 0.5 μmol/ml
Method: 4T1 cells were seeded at 1×10^4 per ml in a 48-well plate. Cells were exposed to different concentrations of doxorubicin-loaded CLENs (4T1, BT-20, and SKBR-3). SRB assay was used to determine percent of cell viability 24 hours following exposure to doxorubicin (5 mol %). Error bars indicate mean±S.D. (n=6).
Sulforhodamine B (SRB) assay was used to determine percent viability of control based on the amount of basic proteins in viable cells following exposure to different CLENs. Cells were seeded at 1×10^4 per ml in a 48-well plate. Columns of cells in the 48 well plate were exposed to either doxil, free doxorubicin, SKBR-3, BT-20 or 4T1 CLENs-loaded with doxorubicin (5 mol %). […] Finally, 1 mL of 1×PBS was added to each well and the plate was analyzed using a fluorescence microplate reader. The fluorescence intensity was measured at excitation wavelength of 540/20 nm and emission wavelength of 590/20 nm using FLX 800 Fluorescence Microplate Reader (Bio-tech Instruments, Winooski, VT).
Enhanced cellular uptake and selective drug targeting are important features of a drug delivery system, but how each translates overall to therapy is critical to success. For this reason, cytotoxicity of three different doxorubicin-loaded CLENs was evaluated for 4T1, BT-20 and SKBR-3 variety, doxil, and free doxorubicin (0.5 μmol/ml) against the growth of 4T1 cells in vitro. […]

COc1cccc2c1C(=O)c1c(O)c3c(c(O)c1C2=O)C[C@@](O)(C(=O)CO)C[C@@H]3O[C@H]1C[C@H](N)[C@H](O)[C@H](C)O1 [free doxorubicin, Doxorubicin hydrochloride]
cytotoxicity against growth of 4T1 cells (comparison in words): No significant difference in cytotoxicity
